These results are taken from US10815224B2, “Monocyclic heteroaryl substituted compounds” (Bristol-Myers Squibb Company, priority 2016, dated 2020).

SMILES strings stand for the structures.

The target of one data set is T1, PAR4 (Homo sapiens, UniProt Q96RI0).
T1 construct: expressed in transfected cells; host or cells: HEK293 PAR4 Clone 1.2A (BMS Arctic ID 383940)
T1 sequence (Q96RI0 18-385): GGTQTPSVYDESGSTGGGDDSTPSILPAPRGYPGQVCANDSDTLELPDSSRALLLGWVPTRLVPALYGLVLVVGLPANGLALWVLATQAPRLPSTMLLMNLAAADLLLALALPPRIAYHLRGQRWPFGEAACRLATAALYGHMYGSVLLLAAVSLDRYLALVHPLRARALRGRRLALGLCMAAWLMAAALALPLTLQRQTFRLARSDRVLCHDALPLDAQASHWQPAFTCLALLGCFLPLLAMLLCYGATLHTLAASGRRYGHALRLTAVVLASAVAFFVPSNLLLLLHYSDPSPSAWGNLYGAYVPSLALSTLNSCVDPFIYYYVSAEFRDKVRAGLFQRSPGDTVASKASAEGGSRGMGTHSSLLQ
Description: PAR4 FLIPR assay: calcium mobilization in PAR4-expressing HEK293 cells.
Details: not given
The format is cell-based. An excerpt: The FLIPR assay is an exemplary in vitro assay for measuring the activity of the PAR4 antagonists of the present invention. In this assay, intracellular calcium mobilization is induced in PAR4 expressing cells by a PAR4 agonist and calcium mobilization is monitored.
HEK293 cells stably expressing PAR4 were generated by a standard method of transfection of human PAR4 (F2R23) cDNA expression vector and selected based on PAR4 protein expression or mRNA expression. […] Therefore, the same cells were also used to determine selectivity against PAR1 and agonist activity for both receptors.
FLIPR-based calcium mobilization assay in HEK293 cells was used to measure PAR4 antagonism, agonism, and selectivity against PAR1. […] Counter screens for agonist activity and PAR1 antagonist activity were also performed. […] Cells were plated overnight prior to the experiment in a black 384-well Purecoat Amine clear bottom plate (Becton Dickinson Biosciences, San Jose, Calif.) at 10,000 cells/well in 30 μL growth medium and incubated in a humidified chamber at 37° C. with 5% CO2 overnight. Prior to compound addition, the cell medium was replaced with 40 μL of 1× calcium and magnesium-containing Hank's Balanced Saline Solution (HBSS) (with 20 mM HEPES) and 1:1000 diluted fluorescent calcium indicator (Codex Biosolutions, Gaithersburg, Md.). After a 30 minute incubation period at 37° C., and a further 30 minute incubation and equilibration period at room temperature, 20 μL test compound (diluted in 1×HBSS buffer) was added at various concentrations at 0.17% dimethyl sulfoxide (DMSO) final concentration. Changes in fluorescence intensity were measured using a Functional Drug Screening System (FDSS, Hamamatsu, Japan) to determine agonist activities. The cells were then incubated for 30 minutes at room temperature followed by addition of 20 μL of agonist peptide for antagonist activity measurement. […] Compound potency was derived from 11-point concentration-response curves.
(In general: A change in cytosolic calcium serves as a functional read-out for many receptors and channels.)
Consider `Cc1cc(-c2nc(C)cs2)c2ncc(OC(F)F)nc2c1` [Example 36, 2-(2-(difluoromethoxy)-7-methylquinoxalin-5-yl)-4-methylthiazole], for which the IC50 was 64 nM.
Still for that read-out and setting: the same measure for `Cc1cc(-c2ncc(-c3cccc4cc[nH]c34)s2)c2ncc(OC(F)F)nc2c1` [Example 37, 2-(2-(difluoromethoxy)-7-methylquinoxalin-5-yl)-5-(1H-indol-7-yl)thiazole]: 60 nM; for `Cc1cc(-c2ncc(-c3cccc4[nH]ccc34)s2)c2ncc(OC(F)F)nc2c1` [Example 38, 2-(2-(difluoromethoxy)-7-methylquinoxalin-5-yl)-5-(l H-indol-4-yl)thiazole]: 820 nM; for `Cc1cc(-c2ncc(CO)s2)c2ncc(OC(F)F)nc2c1` [Example 39, (2-(2-(difluoromethoxy)-7-methylquinoxalin-5-yl)thiazol-5-yl)methanol]: 2000 nM.
The same measure, in the same setting: the same measure for `Cc1cc(-c2ncc(-c3ccn[nH]3)s2)c2ncc(OC(F)F)nc2c1` [Example 40, 2-(2-(difluoromethoxy)-7-methylquinoxalin-5-yl)-5-(1H-pyrazol-5-yl)thiazole]: 23 nM.
On the same count and under the same terms, the same measure for `Cc1cc(-c2ncc(-c3ccc4cc[nH]c4c3)s2)c2ncc(OC(F)F)nc2c1` [Example 42, 2-(2-(difluoromethoxy)-7-methylquinoxalin-5-yl)-5-(1H-indol-6-yl)thiazole]: 81 nM.
With `Cc1cc(-c2ncc(-c3ccncc3)s2)c2ncc(OC(F)F)nc2c1` [Example 43, 2-(2-(difluoromethoxy)-7-methylquinoxalin-5-yl)-5-(pyridin-4-yl)thiazole], the IC50 amounted to 330 nM.
The same measure, in the same setting: the same measure for `Cc1cc(-c2ncc(-c3ccccn3)s2)c2ncc(OC(F)F)nc2c1` [Example 44, 2-(2-(difluoromethoxy)-7-methylquinoxalin-5-yl)-5-(pyridin-2-yl)thiazole]: 79 nM; for `COc1cnc2c(-c3ncc(-c4ccccc4C(F)F)s3)cc(C)cc2n1` [Example 45, 5-(2-(difluoromethyl)phenyl)-2-(2-methoxy-7-methylquinoxalin-5-yl)thiazole]: 25 nM.
The same measure, in the same setting: the same measure for `COc1cnc2c(-c3ncc(-c4cc(O)c(F)c(F)c4)s3)cc(C)cc2n1` [Example 46, 2,3-difluoro-5-(2-(2-methoxy-7-methylquinoxalin-5-yl)thiazol-5-yl)phenol]: 14 nM; for `COc1cnc2c(-c3nc(C(F)(F)F)c(C(=O)C4CCCCC4)s3)cc(C)cc2n1` [Example 47, Cyclohexyl(2-(2-methoxy-7-methylquinoxalin-5-yl)-4-(trifluoromethyl)thiazol-5-yl) methanone]: 53 nM.
As to `COCc1cnc2c(-c3ncc(-c4ccn[nH]4)s3)cc(C)cc2n1` [Example 48, 2-(2-(methoxymethyl)-7-methylquinoxalin-5-yl)-5-(1H-pyrazol-5-yl)thiazole], the IC50 was determined as 3.1 nM.
Still for that read-out and setting: the figure for `COCc1cnc2c(-c3ncc(-c4cccc(O)c4)s3)cc(C)cc2n1` [Example 49, 3-(2-(2-(methoxymethyl)-7-methylquinoxalin-5-yl)thiazol-5-yl)phenol] is 19 nM; for `COCc1cnc2c(-c3ncc(-c4cc(F)ccc4O)s3)cc(C)cc2n1` [Example 50, 4-fluoro-2-(2-(2-(methoxymethyl)-7-methylquinoxalin-5-yl)thiazol-5-yl)phenol] it is 5.7 nM; for `Cc1cc(-c2ncc(-c3cccc(O)c3)s2)c2ncc(OC(F)F)nc2c1` [Example 51, 3-(2-(2-(difluoromethoxy)-7-methylquinoxalin-5-yl)thiazol-5-yl)phenol] it is 7.1 nM.
On the same count and under the same terms, the figure for `COc1ccc(-c2cnc(-c3cc(C)cc4nc(OC)cnc34)s2)nc1` [Example 52, 2-(2-methoxy-7-methylquinoxalin-5-yl)-5-(5-methoxypyridin-2-yl)thiazole] is 550 nM.
Still for that read-out and setting: the same measure for `COCc1cnc2c(-c3ncc(-c4ccc(OC)cn4)s3)cc(C)cc2n1` [Example 53, 2-(2-(methoxymethyl)-7-methylquinoxalin-5-yl)-5-(5-methoxypyridin-2-yl)thiazole]: 290 nM.

Still in this data set, the particulars now being: HEK293 cells expressing human PAR4; calcium mobilization induced by H-Ala-Phe(4-F)-Pro-Gly-Trp-Leu-Val-Lys-Asn-Gly-NH2.
In the case of `Cc1cc(-c2nc(C(C)(C)C)cs2)c2ncc(OC(F)F)nc2c1` [Example 41], the IC50 worked out at 450 nM.

The target of another data set is T2, protease-activated receptor type 4 (PAR4) (Homo sapiens, UniProt Q96RI0).
T2 sequence (Q96RI0 18-385): T1 sequence (Q96RI0 18-385)
Assay: not given
The settings on record: abstract of Lee et al. 2001; cited from earlier work.
In the case of `CCOC(=O)c1ccc(-c2nn(Cc3ccccc3)c3ccccc23)cc1` [YD-3, ethyl 4-(1-benzyl-1H-indazol-3-yl)benzoate], the “Inhibition of PAR4-dependent platelet activation” value is “selective and potent inhibitor”.

In another data set the test system is ACS patients.
Assay: not given
The following applies: TRACER phase III trial; cited from earlier work.
Regarding `CCOC(=O)N[C@@H]1CC[C@@H]2[C@@H](C1)C[C@H]1C(=O)O[C@H](C)[C@H]1[C@H]2/C=C/c1ccc(-c2cccc(F)c2)cn1` [vorapaxar], the Cardiovascular events result is reported as “did not significantly reduce cardiovascular events” and the “Risk of major bleeding” value is listed as “significantly increased the risk of major bleeding”.

As a reminder, the IC50 is the concentration needed to halve the response being measured.
